Test results as given in patent US5525629A, “Inhibition of cytokine production” (British Bio-Technology Limited, priority 1992, dated 1996).

Columns and labels:
TNF gene transcription = conditions: literature; compared with corticosteroids, cyclosporin-A, FK506; cited from earlier work
[1] = system: TNF α release from a human monocytic cell line, U937; experiment: inhibition of PMA-stimulated TNF α release from U937 cells (TNF α ELISA); assay type: cell-based; conditions: U-937, PMA 50 nM, 18 hours at 37° C., read-out: concentration of test compound which inhibits the release of TNF α by 50% relative to the control culture (IC50)
Description: The ability of example compounds of the invention to inhibit the release of TNF was investigated. The assay is based on the ability of phorbol myristate acetate (PMA) to stimulate the release of TNF α from a human monocytic cell line, U937.
U937 cells cultured in RPMI 1640 medium +5% foetal calf serum are centifuged at 1000×g for 5 minutes and then resuspended in medium at 2×10^6 /mi. 1 ml of cell suspension is aliquoted into individual wells of 24-well plates. Test compounds are dissolved in dimethyl sulphoxide (DMSO) at a stock concentration of 100 mM, then diluted to 50×the final required concentration with RPMI 1640 medium. 20 μl of the diluted compounds are added to U937 cells in duplicate wells. TNF α release is stimulated by addition of PMA to the cells at a final concentration of 50 nM. Appropriate control cultures are set up in duplicate. The plates are incubated for 18 hours at 37° C., 5% CO2, then centrifuged at 1000×g for 5 minutes. A specific ELISA for TNF α obtained from British Bio-technology Products Limited, Abingdon, England is used to measure TNF α levels in the culture supernatants
The average concentration of test compound which inhibits the release of TNF α by 50% relative to the control culture was assessed.

serum TNF = experiment: inhibition of endotoxin (LPS) induced TNF production in vivo (serum TNF by L929 cytotoxicity assay); set-up: species or system Male New Zealand rabbits
Description: The compound of Example 3 was assessed for its ability to inhibit release of endotoxin induced TNF production in vivo.
Male New Zealand rabbits, 2.5-3.0 kg, were anaesthetised with sodium pentobarbitone, 30 mg.kg^-1 via a marginal ear vein which was maintained by infusion at 18 mg.kg^-1.hr^-1 via a jugular vein. Following tracheotomy, the animals were ventilated, to maintain arterial blood […], and oxygen was added to the inspired air to maintain arterial blood PO2 above 100 mmHg. Both femoral veins were cannulated for the administration of endotoxin (LPS) and the infusion of test compound, 2.5 mg.kg^-1.hr^-1 at a rate of 6 ml.hr^-1, 15 minutes before the administration of LPS, 40 μg.kg^-1 i.v. bolus. Blood samples were collected from a femoral artery just before and at 30 minute intervals after the administration of LPS for a period of 4 hours.
The biological activity of TNF in serum test samples was determined using a cytotoxicity assay as described in Mathews, N. and Neale, M. L. in Lymphokines and Interferons, a Practical Approach, Eds. M. J. Clements, A. G. Morris, and A. J. H. Gearing, IRL Press, Oxford, UK.
100 μl volumes of L929 cell suspension at 10^5 cells/ml were dispensed into 96-well microtitre plates. The plates were incubated overnight to allow formation of an even monolayer. A series of dilutions of the test rabbit serum was made in a culture medium containing 2 μg/ml of actinomycin D to give a final concentration of 1 μg/ml when added to the cells. The L929 cells were incubated for 24 hours in the presence of test samples, and serially diluted human TNF α was used as the assay standard. After the incubation period, dead cells were removed by washing briefly with phosphate buffered saline, and remaining cells were fixed with 4% formaldehyde for 10 minutes. After washing the plates with water to remove the fixative, the cells were stained by the addition of 50 μl of 1% crystal violet to each well for 5 minutes. The plates were washed extensively with water and dried. Cells were solubilised by the addition of 100 μl/well of 30% acetic acid and the OD at 550 nm was determined. The TNF level in units/ml in the test samples was determined from the human TNF α standard curve. where 1 unit is the equivalent of 1 pg/ml human TNF α.

collagenase = target: T1, collagenase (Homo sapiens, UniProt P03956); experiment: inhibition of collagenase (Cawston and Barrett, acetylated 14C collagen); assay type: biochemical; conditions: 37°, 16 hours, pH 7.5
T1 sequence (P03956 100-469): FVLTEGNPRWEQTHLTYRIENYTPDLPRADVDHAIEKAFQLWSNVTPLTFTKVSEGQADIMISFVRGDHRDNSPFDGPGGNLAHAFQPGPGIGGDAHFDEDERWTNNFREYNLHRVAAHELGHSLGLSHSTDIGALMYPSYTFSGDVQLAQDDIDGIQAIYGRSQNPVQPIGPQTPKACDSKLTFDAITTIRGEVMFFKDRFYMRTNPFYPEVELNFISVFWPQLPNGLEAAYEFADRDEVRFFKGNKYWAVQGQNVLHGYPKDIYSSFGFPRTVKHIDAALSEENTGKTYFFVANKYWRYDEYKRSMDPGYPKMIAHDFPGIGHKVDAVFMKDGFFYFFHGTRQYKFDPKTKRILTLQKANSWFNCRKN
Excerpt: The collagen was acetylated ^14 C collagen prepared by the method of Cawston and Murphy, (Methods in Enzymology, 80, 711, 1981), hereby incorporated by reference. The samples were centrifuged to sediment undigested collagen, and an aliquot of the radioactive supernatant removed for assay on a scintillation counter as a measure of hydrolysis.

stromelysin = stromelysin (Homo sapiens, UniProt P08254); experiment: inhibition of stromelysin (Cawston et al, acetylated 14C casein); assay type: biochemical; conditions: 37°, 16 hours, pH 7.5
Excerpt: The casein was acetylated ^14 C casein prepared by the method of Cawston et al (ibid).

[2] = system: TNF production by leucocytes; conditions: literature (Sampajo et al, 1991); cited from earlier work

Chain of stromelysin (P08254 100-477): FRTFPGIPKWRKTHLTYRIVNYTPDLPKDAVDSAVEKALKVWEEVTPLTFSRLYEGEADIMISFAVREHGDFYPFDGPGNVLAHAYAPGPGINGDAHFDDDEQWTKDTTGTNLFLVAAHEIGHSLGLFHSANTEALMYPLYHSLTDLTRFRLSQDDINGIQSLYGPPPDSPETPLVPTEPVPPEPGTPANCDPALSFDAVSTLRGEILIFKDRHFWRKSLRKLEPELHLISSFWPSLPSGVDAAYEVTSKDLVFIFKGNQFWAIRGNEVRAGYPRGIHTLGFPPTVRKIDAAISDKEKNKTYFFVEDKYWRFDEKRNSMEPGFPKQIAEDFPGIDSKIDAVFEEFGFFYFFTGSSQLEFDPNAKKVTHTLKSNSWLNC

IC50 [1] [nM] | IC50 (collagenase) [nM] | IC50 (stromelysin) [nM] | Structure (SMILES) | other results
 |  |  | CC(=O)CCCCn1c(=O)c2c(ncn2C)n(C)c1=O [pentoxyfilline] | specificity of inhibition of TNF gene transcription (TNF gene transcription): more specific inhibitors of TNF gene transcription
< 50000 | 9 | 50 | CNC(=O)[C@H](CCC(=O)OC)NC(=O)[C@H](CC(C)C)[C@H](CSc1ccc(O)cc1)C(=O)NO [Example 3, 2S-(4-Hydroxyphenylsulfanylmethyl)-3R-(3-methoxycarbonyl-1S-methylcarbamoyl-propylcarbamoyl)-5-methyl-hexanohydroxamic acid] | Average % change in serum TNF level, LPS + test compound (serum TNF; 0 hrs from LPS bolus IV injection, infusion 2.5 mg.kg^-1.hr^-1 started 15 minutes before LPS 40 μg.kg^-1 i.v., n = 4): 0%; Average % change in serum TNF level, LPS + test compound (serum TNF; 1 hr from LPS bolus, infusion 2.5 mg.kg^-1.hr^-1, LPS alone (n = 5) +65): -58%; Average % change in serum TNF level, LPS + test compound (serum TNF; 2 hrs from LPS bolus, infusion 2.5 mg.kg^-1.hr^-1, LPS alone (n = 5) +55): -65%; Average % change in serum TNF level, LPS + test compound (serum TNF; 3 hrs from LPS bolus, infusion 2.5 mg.kg^-1.hr^-1, LPS alone (n = 5) -30): -99%; Average % change in serum TNF level, LPS + test compound (serum TNF; 4 hrs from LPS bolus, infusion 2.5 mg.kg^-1.hr^-1, LPS alone (n = 5) -100): -100%
< 50000 | 15 |  | CNC(=O)[C@H](CCC(=O)OC)NC(=O)[C@H](CC(C)C)[C@H](CSc1cccs1)C(=O)NO [Example 2, 3R-(3-Methoxycarbonyl-1S-methylcarbamoyl-propylcarbamoyl)-5-methyl-2S-(thien-2-ylsulfanylmethyl)-hexanohydroxamic acid] | 
 | 20 | 250 | CNC(=O)[C@H](CCC(=O)OC)NC(=O)[C@H](CC(C)C)[C@H](CSc1ccccc1)C(=O)NO [Example 1, 3R-(3-Methoxycarbonyl-1S-methylcarbamoyl-propylcarbamoyl)-5-methyl-2-S-phenylsulfanylmethyl hexanohydroxamic acid] | 
 |  |  | O=C1CCC(N2C(=O)c3ccccc3C2=O)C(=O)N1 (centres unmarked) [Thalidomide] | inhibition of TNF production by leucocytes [2]: inhibit TNF production by leucocytes

Structure (SMILES) | IC50 [1] [nM] | IC50 (collagenase) [nM] | IC50 (stromelysin) [nM] | other results
CNC(=O)[C@H](CCC(=O)OC(C)(C)C)NC(=O)[C@H](CC(C)C)[C@H](CSc1ccc(O)cc1)C(=O)NO [Example 12, 2S-(4-Hydroxyphenylsulfanylmethyl)-3R-(3-tertbutoxycarbonyl-1S-methylcarbamoyl-propylcarbamoyl)-5-methyl-hexanohydroxamic acid] | < 50000 | 20 | 40 | 
